Reference: patent publication US20040039053A1, “Use of(-) (3-halomethylphenoxy) (4-halophenyl) acetic acid derivatives for treatment of insulin resistance, type 2 diabetes, hyperlipidemia and hyperuricemia” (priority 2000, published 2004)

Assays:
diabetic ob/ob mice [1] = test: Glucose and insulin lowering on daily oral administration for 5 days in ob/ob mice (Example 9); conditions: 250 mg/kg/day oral
Experimental: Animals were housed (4-5 mice/cage) under standard laboratory conditions at 22° C. and 50% relative humidity, and were maintained on a diet of Purina rodent chow and water ad libitum. Prior to treatment, blood was collected from the tail vein of each animal. Mice that had non-fasting plasma glucose levels between 300 and 520 mg/dL were used. Each treatment group consisted of 10 mice that were distributed so that the mean glucose levels were equivalent in each group as the start of the study. […] The gavage volume was 10 ml/kg. Blood samples were taken at 3, 6, 27, 30 and 120 hour after the first dose and analyzed for plasma glucose and insulin. The animals were fasted overnight (14 hours) before the 120 hours sampling. Plasma glucose concentrations were determined calorimetrically using glucose oxidase method (Sigma Chemical Co, St. Louis, Mo., USA). Plasma insulin concentrations were determined by using the Rat Insulin RIA Kit from Linco Research Inc. (St. Charles, Mo., USA). Significance difference between groups (comparing drug-treated to vehicle-treated) was evaluated using Student unpaired t-test.

Zucker fatty rats = test: Oral glucose challenge in Zucker fatty rats (Example 10); type: in vivo; conditions: racemate 100 mg/kg, enantiomers 50 and 100 mg/kg
Experimental: Prior to treatment, rats were assigned to 6 groups based on body weight. Each treatment group consisted of 8 rats. […] The gavage volume was 10 ml/kg. All rats received an oral glucose challenge (1.9 g/kg) 5.5 hours after the treatment and 4 hours after withdrawal of the food. Blood samples were taken at 0, 15, 30, 60, 90, 120, and 180 minutes following the glucose challenge for plasma glucose measurement. […] On day 5, rats received the intravenous insulin (0.75 U/kg) 5.5 hours after the last dose and 4 hours after withdrawal of the food. Blood samples were taken at 3, 6, 9, 12, 15 and 18 minutes following the insulin injection for plasma glucose measurement.

patients with diabetes = conditions: cited from earlier work
diabetic ob/ob mice [2] = test: Time course of glucose-lowering after a single oral dose in ob/ob mice (Example 8); type: in vivo; conditions: single oral dose 250 mg/kg
[3] = system: Zucker Diabetic Fatty rats; test: Lipid lowering activity in Zucker Diabetic Fatty rats (Example 11); type: in vivo; conditions: ZDF rats, 13 days; racemate 50 mg/kg/day, enantiomers 25 mg/kg/day
Experimental: Male Zucker diabetic fatty (ZDF) rats were obtained from GMI Laboratories (Indianapolis, Ind.) at 9 weeks of age. Vehicle or enantiomers of halofenate administered by oral gavage on a daily basis starting at 74 days of age. Initial blood samples were obtained for analysis one day before treatment and at the indicated times in the treatment protocol. Blood was analyzed for plasma triglyceride and cholesterol by standard techniques.

CYP2C9 = CYP2C9 (Homo sapiens, UniProt P11712)
[4] = target: T1, cytochrome P450 2C9 (CYP2C9) (Homo sapiens, UniProt P11712); test: biochemical
Experimental: (§1) Tolbutamide hydroxylation activity (100 μM C-tolbutamide; 1 mM NADPH) was assayed in pooled human liver microsomes (0.6 mg protein/ml)) for 60 minutes at 37° C. both with and without test compounds.

[5] = target: T1, cytochrome P450 2C9 (CYP2C9); test: Inhibition of CYP2C9 tolbutamide hydroxylation activity in pooled human liver microsomes (Example 7)
Experimental: as §1

CYP2C19 = CYP2C19 (Homo sapiens, UniProt P33261); test: Cytochrome P450 isoform inhibition in human hepatic microsomes, S-mephenytoin (Example 18); type: in vitro ADME; conditions: both sexes, human, pooled human hepatic microsomes, probe S-mephenytoin 50 μM; positive control 10 μM
[6] = Plasma hydrolysis of (−) CPTA prodrug esters in human plasma (Example 21); type: in vitro ADME; conditions: human plasma (heparinized, pooled), 125 or 250 μM, 37° C., hydrolysis to (−) CPTA; read-out: Plasma T1/2 (converted)
Experimental: This example illustrates the plasma hydrolysis of various prodrug esters of the (S)-enantiomer of CPTA at physiological conditions. Hydrolysis was monitored and analyzed by HPLC. The hydrolytic product was identified by comparison to authentic (−) CPTA and the hydrolytic rates were calculated. [drawing 83]
Human plasma (heparinized, pooled) was obtained from Golden West Biololgicals Inc., USA; Plasma incubation was carried out in a Water Bath Shaker (New Brunswick Scientific, Inc.); Sample analyses were carried out on Agilent HPLC 1100 system.
Prepare 31.25 or 62.5 mM prodrug stock solutions in 100% DMSO. Add 4 μL of 31.25 or 62.5 mM prodrug stock solutions to 1.0 mL of plasma in a microcentrifuge tube to make plasma concentration at 125 or 250 μM, mix gently. Aliquots of 50 μL are transferred to 15 microcentrifuge vials. Three samples are immediately removed to a freezer at about −80° C. (0 time point), the remaining samples are incubated in a bath shaker at 37° C. Three samples are removed at 30 min, 2, 7 and 24 hr, and stored at −80° C. until analysis. The relative concentrations of MBX-compounds are determined by HPLC methods. If there are enough data points, the hydrolytic rate can be calculated using WinNonlin software. Table 10 provides a summary of plasma half-lives of some pro-drug esters and FIGS. 20A-20G illustrate the hydrolytic curves of those prodrug esters.

T1 sequence (P11712 whole entry): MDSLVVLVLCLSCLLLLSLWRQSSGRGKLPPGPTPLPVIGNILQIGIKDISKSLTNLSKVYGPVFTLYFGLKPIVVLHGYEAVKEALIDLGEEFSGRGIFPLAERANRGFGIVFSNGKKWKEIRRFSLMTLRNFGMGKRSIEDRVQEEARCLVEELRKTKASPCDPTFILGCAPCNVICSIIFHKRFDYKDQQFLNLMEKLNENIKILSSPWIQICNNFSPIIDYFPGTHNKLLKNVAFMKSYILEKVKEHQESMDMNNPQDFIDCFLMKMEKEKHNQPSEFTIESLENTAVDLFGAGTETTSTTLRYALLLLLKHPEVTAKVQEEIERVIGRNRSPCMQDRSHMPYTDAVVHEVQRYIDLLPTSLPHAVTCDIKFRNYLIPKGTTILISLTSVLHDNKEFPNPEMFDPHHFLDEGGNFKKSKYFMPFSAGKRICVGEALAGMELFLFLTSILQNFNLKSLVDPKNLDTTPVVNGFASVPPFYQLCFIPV
Sequence of CYP2C9 (P11712 whole entry): as above
Sequence of CYP2C19 (P33261 whole entry, canonical isoform): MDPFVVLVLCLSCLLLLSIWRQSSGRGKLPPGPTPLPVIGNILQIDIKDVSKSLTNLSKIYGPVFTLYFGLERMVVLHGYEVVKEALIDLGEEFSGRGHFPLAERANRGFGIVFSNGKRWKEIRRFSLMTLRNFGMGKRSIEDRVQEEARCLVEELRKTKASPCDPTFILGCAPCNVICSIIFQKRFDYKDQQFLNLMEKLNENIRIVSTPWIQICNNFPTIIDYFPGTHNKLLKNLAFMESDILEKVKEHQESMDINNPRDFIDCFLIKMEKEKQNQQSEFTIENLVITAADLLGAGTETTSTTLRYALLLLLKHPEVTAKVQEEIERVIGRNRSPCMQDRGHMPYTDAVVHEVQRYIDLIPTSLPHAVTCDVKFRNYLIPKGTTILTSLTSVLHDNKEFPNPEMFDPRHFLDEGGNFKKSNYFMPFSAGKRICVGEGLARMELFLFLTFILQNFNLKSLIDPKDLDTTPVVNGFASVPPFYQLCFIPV

Compound: CC(=O)NCCOC(=O)C(Oc1cccc(C(F)(F)F)c1)c1ccc(Cl)cc1 (racemic) [racemic halofenate, 2-acetamidoethyl (4-chlorophenyl) (3-trifluoromethylphenoxy) acetate, reference compound]
- time points with significant plasma glucose reduction vs control (diabetic ob/ob mice [1]): Significant decreases in glucose levels
- time points with reduced plasma insulin vs control (diabetic ob/ob mice [1]; listed as racemate, 250 mg/kg/day): insulins were lower
- plasma glucose after oral glucose challenge, in words (Zucker fatty rats; single oral dose 5.5 hours before challenge): plasma glucose was reduced
- incremental glucose area under the curve (AUC) vs control, in words (Zucker fatty rats; single oral dose): not statistically significant
- side effects noted (patients with diabetes; previous studies): gastrointestinal bleeding from stomach and peptic ulcers
- effect on glucose in patients with diabetes (patients with diabetes; treated with racemic halofenate alone): minimal effect on glucose
- time of peak glucose-lowering activity (diabetic ob/ob mice [2]): 9 h
- time points with significant (p<0.05) decrease in glucose compared to control (diabetic ob/ob mice [2]): most of the timepoints
- plasma cholesterol course during treatment, in words [3]: plasma cholesterol declined with treatment

Compound: Nc1ccc(S(=O)(=O)Nc2ccnn2-c2ccccc2)cc1 [SFZ, sulfaphenazole, reference compound]
- Tolbutamide 4-OH TB Production (CYP2C9): BQL

Compound: O=C(O)C(Oc1cccc(C(F)(F)F)c1)c1ccc(Cl)cc1 (racemic) [racemic halofenic acid, 4-Chlorophenyl-(3-trifluoromethylphenoxy)-acetic Acid]
- IC50 [4]: 450 nM
- inhibition of cytochrome P450 2C9, in words [5]: found to inhibit cytochrome P450 2C9

Compound: COc1ccc2[nH]c([S+]([O-])Cc3ncc(C)c(OC)c3C)nc2c1 (stereo not drawn) [OMP, omeprazole, reference compound]
- inhibition at 30 min, 10 μM (CYP2C19): 50%

Compound: CCOC(=O)C(Oc1cccc(C(F)(F)F)c1)c1ccc(Cl)cc1 (single isomer, unassigned) [Compound 19.7]
- half-life [6]: < 7 h

Compound: O=C(OCCO)C(Oc1cccc(C(F)(F)F)c1)c1ccc(Cl)cc1 (single isomer, unassigned) [Compound 19.14]
- half-life [6]: < 2 h

Compound: COCCOC(=O)C(Oc1cccc(C(F)(F)F)c1)c1ccc(Cl)cc1 (single isomer, unassigned; (-)) [Compound 19.8, (−)-2-methoxyethyl 4-chloro-alpha-(3-trifluoromethylphenoxy)benzeneacetate]
- half-life [6]: < 2 h

Compound: CS(=O)(=O)NCCOC(=O)C(Oc1cccc(C(F)(F)F)c1)c1ccc(Cl)cc1 (single isomer, unassigned) [Compound 19.10]
- half-life [6]: < 1 h

Compound: O=C(NCCOC(=O)C(Oc1cccc(C(F)(F)F)c1)c1ccc(Cl)cc1)c1ccncc1 (single isomer, unassigned) [Compound 19.26]
- half-life [6]: < 1 h
